Source: the NIST ThermoML archive (doi:10.1021/je8001255)

Experiment: an = ratio of the nth substance listed, in mol/kg
Conditions: 100 kPa, Liquid; for electrical conductivity: Alternating current cell with electrodes

O=S(=O)([O-])[O-].[Cu+2] [copper sulfate] + O
Conditions | electrical conductivity, 278.15 K [S/m] | electrical conductivity, 283.15 K [S/m] | electrical conductivity, 288.15 K [S/m] | electrical conductivity, 293.15 K [S/m] | electrical conductivity, 298.15 K [S/m] | electrical conductivity, 303.15 K [S/m] | electrical conductivity, 308.15 K [S/m] | mass density, 298.15 K [kg/m3]
a1 = 0.00666 | 0.0666 | 0.0763 | 0.0863 | 0.0965 | 0.107 | 0.117 | 0.128 | 998.16
a1 = 0.02534 | 0.196 | 0.224 | 0.253 | 0.282 | 0.311 | 0.34 | 0.369 | 1001.26
a1 = 0.04942 | 0.319 | 0.365 | 0.412 | 0.459 | 0.506 | 0.553 | 0.598 | 1005.23
a1 = 0.09691 | 0.543 | 0.621 | 0.7 | 0.78 | 0.86 | 0.938 | 1.01 | 1013.09
a1 = 0.2535 | 1.17 | 1.34 | 1.51 | 1.68 | 1.85 | 2.02 | 2.19 | 1039.39
a1 = 0.3778 | 1.61 | 1.84 | 2.07 | 2.31 | 2.54 | 2.78 | 3 | 1060.88
a1 = 0.4881 | 1.95 | 2.23 | 2.52 | 2.81 | 3.1 | 3.39 | 3.68 | 1080.51
a1 = 0.6806 | 2.49 | 2.85 | 3.23 | 3.6 | 3.99 | 4.37 | 4.74 | 1115.98
a1 = 0.7935 | 2.75 | 3.15 | 3.57 | 4 | 4.43 | 4.87 | 5.29 | 1137.68
a1 = 0.9197 | 3 | 3.45 | 3.92 | 4.4 | 4.88 | 5.37 | 5.85 | 1162.72
a1 = 1.037 | 3.22 | 3.7 | 4.21 | 4.73 | 5.25 | 5.79 | 6.32 | 1186.79
a1 = 1.138 | 3.34 | 3.85 | 4.39 | 4.94 | 5.51 | 6.08 | 6.66 | 1208.14
a1 = 1.198 | 3.4 | 3.93 | 4.48 | 5.06 | 5.64 | 6.24 | 6.83 | 1220.58
